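Method: 48-hour compound exposure of cells in 96-well plates, five concentrations, linear interpolation of endpoints. GI50 is the concentration that inhibits growth by half.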 Activity calls are given as the source filed them. No stated cut-off is given here; in the data, active = GI50 up to about 1.1 µM and inactive = higher.

Some test systems named below: MDA-MB-231; A498; NCI/ADR-RES; OVCAR-3; SK-MEL-28; SR; CCRF-CEM; MDA-N; SF-268; M14; RXF 393; LOX IMVI; RPMI-8226; OVCAR-8; CAKI-1; 786-0; Hs-578T; MOLT-4; UACC-62.
Test in all cases: growth of human tumour cells (NCI), 48 h

`CC(=O)NCCC1CN(C(=O)/C=C\I)c2ccccc21` (stereo not given): the GI50 in the assay with MDA-MB-231 was 4.13 µM (inactive); in the assay with A498, 18.4 µM (inactive); with NCI/ADR-RES it was 25.5 µM (inactive); in the assay on OVCAR-3, 15 µM (inactive); in the assay with SK-MEL-28, 16 µM (inactive); in the assay on SR, > 33.7 µM (inactive). The GI50 with CCRF-CEM was 3.03 µM (inactive); in the assay on MDA-N it was 12.6 µM (inactive); in the assay with SF-268, 15.5 µM (inactive); with M14, 11.7 µM (inactive); with RXF 393, 7.29 µM (inactive); with LOX IMVI, 3.08 µM (inactive). In addition, the GI50 in the assay on RPMI-8226 is 2.08 µM (inactive); in the assay with OVCAR-8, 16.2 µM (inactive); in the assay on CAKI-1, 1.73 µM (inactive); in the assay with 786-0, 10.6 µM (inactive); with Hs-578T it was 27.2 µM (inactive); in the assay with MOLT-4, 5.53 µM (inactive). Besides, the GI50 with UACC-62 is 13 µM (inactive).
As to `N#Cc1c(N2CCCC2)nsc1Nc1ccc(F)cc1`, the GI50 in the assay on MDA-MB-231, in the assay with A498, in the assay on NCI/ADR-RES, in the assay on OVCAR-3, in the assay with SK-MEL-28 and in the assay on SR was > 100 µM (inactive) throughout. The GI50 with CCRF-CEM, in the assay on MDA-N, in the assay on SF-268, with M14, in the assay on RXF 393 and in the assay on LOX IMVI was > 100 µM (inactive) in each case. Moreover, the GI50 in the assay on RPMI-8226 was > 100 µM (inactive); with OVCAR-8 it was 78 µM (inactive); in the assay on CAKI-1, 97.1 µM (inactive); in the assay on 786-0 it was > 100 µM (inactive); in the assay on Hs-578T, > 100 µM (inactive); with MOLT-4, > 100 µM (inactive). The GI50 in the assay with UACC-62 is > 100 µM (inactive).
Take `CCOC(=O)c1c(N2CCCC2)[nH]c(=O)c(C(c2ccco2)c2c(O)c(C(=O)OCC)c(N3CCCC3)[nH]c2=O)c1O`: the GI50 with MDA-MB-231, with A498, with NCI/ADR-RES, with OVCAR-3, in the assay on SK-MEL-28 and in the assay with SR was > 100 µM (inactive) in each case. For the same compound, the GI50 is > 100 µM (inactive) in the assay with CCRF-CEM; > 100 µM (inactive) in the assay on MDA-N; 85.3 µM (inactive) in the assay on SF-268; > 100 µM (inactive) with M14; 54.5 µM (inactive) with RXF 393; 37.4 µM (inactive) in the assay on LOX IMVI. For the same compound, the GI50 in the assay with RPMI-8226 is 84.3 µM (inactive); in the assay on OVCAR-8, 92.9 µM (inactive); in the assay with CAKI-1, > 100 µM (inactive); in the assay with 786-0, 29.2 µM (inactive); with Hs-578T it was 27.9 µM (inactive); with MOLT-4 it was > 100 µM (inactive). Besides, the GI50 in the assay on UACC-62 is > 100 µM (inactive).
On to `Cc1ccc(S(=O)(=O)N2CC(CCN)c3ccccc32)cc1` (stereo not given), for which the GI50 in the assay on MDA-MB-231 was 4.1 µM (inactive); in the assay with A498 it was 10.7 µM (inactive); in the assay on NCI/ADR-RES, 5.61 µM (inactive); in the assay with OVCAR-3, 3.36 µM (inactive); in the assay with SK-MEL-28, 5.16 µM (inactive); with SR, 5.19 µM (inactive). The GI50 was > 100 µM (inactive) in the assay with CCRF-CEM; 0.883 µM (active) in the assay on MDA-N; 5.31 µM (inactive) in the assay with SF-268; 2.29 µM (inactive) in the assay on M14; 2.74 µM (inactive) in the assay with RXF 393; 2.99 µM (inactive) in the assay with LOX IMVI. Further, the GI50 in the assay with RPMI-8226 is 6.01 µM (inactive); in the assay on OVCAR-8, 3.59 µM (inactive); with CAKI-1, 6.38 µM (inactive); in the assay with 786-0, 3.89 µM (inactive); in the assay with Hs-578T, 5.62 µM (inactive); in the assay with MOLT-4 it was 28 µM (inactive). In addition, the GI50 with UACC-62 was 3.68 µM (inactive).
For `CCOP(=O)(OCC)/C(C#N)=C/c1cnc(C)[nH]1`, the GI50 with MDA-MB-231, in the assay with A498, in the assay on NCI/ADR-RES, with OVCAR-3, in the assay with SK-MEL-28 and in the assay with SR was > 100 µM (inactive) throughout. Besides, the GI50 in the assay with CCRF-CEM, in the assay with MDA-N, in the assay with SF-268, in the assay on M14, in the assay on RXF 393 and with LOX IMVI was > 100 µM (inactive) each time. Further, the GI50 in the assay with RPMI-8226, with OVCAR-8, in the assay on CAKI-1, in the assay on 786-0, with Hs-578T and in the assay with MOLT-4 was > 100 µM (inactive) in each case. In the assay on UACC-62, the GI50 is > 100 µM (inactive).
On to `Cc1occc1C(=S)Nc1ccc(Cl)c(/C=N/OC(C)C)c1`, for which the GI50 in the assay on MDA-MB-231 was 16.4 µM (inactive); with A498, 19.2 µM (inactive); with NCI/ADR-RES it was 22.2 µM (inactive); with OVCAR-3, 15.6 µM (inactive); in the assay on SK-MEL-28, 27 µM (inactive); in the assay on SR, 21.1 µM (inactive). Also, the GI50 in the assay on CCRF-CEM is 18.1 µM (inactive); with MDA-N, 20.8 µM (inactive); in the assay with SF-268, 28.1 µM (inactive); in the assay with M14, 23.3 µM (inactive); in the assay on RXF 393 it was 21.3 µM (inactive); in the assay with LOX IMVI, 16 µM (inactive). Besides, the GI50 with RPMI-8226 is 20 µM (inactive); in the assay with OVCAR-8 it was 22.8 µM (inactive); with CAKI-1, 17.3 µM (inactive); in the assay on 786-0, 18.5 µM (inactive); in the assay on Hs-578T, 26.7 µM (inactive); with MOLT-4 it was 20.8 µM (inactive). The GI50 in the assay on UACC-62 is 14.5 µM (inactive).
Regarding `Cc1cn(C2CC(N=[N+]=[N-])C(COP(=O)(O)OCC3OC(n4cc(F)c(=O)[nH]c4=O)CC3O)O2)c(=O)[nH]c1=O` (stereo not given), the GI50 in the assay with MDA-MB-231 was > 100 µM (inactive); with A498, 3.37 µM (inactive); with NCI/ADR-RES, 0.57 µM (active); in the assay with OVCAR-3 it was > 100 µM (inactive); in the assay with SK-MEL-28, > 77.4 µM (inactive); with SR, 1.92 µM (inactive). In addition, the GI50 was 0.312 µM (active) in the assay with CCRF-CEM; 38.3 µM (inactive) with MDA-N; 0.442 µM (active) with SF-268; 10.9 µM (inactive) in the assay on M14; > 100 µM (inactive) in the assay on RXF 393; 0.653 µM (active) in the assay with LOX IMVI. Further, the GI50 is 0.311 µM (active) with RPMI-8226; 5.94 µM (inactive) in the assay on OVCAR-8; 1.32 µM (inactive) in the assay with CAKI-1; 0.381 µM (active) in the assay with 786-0; > 100 µM (inactive) in the assay with Hs-578T; 2.22 µM (inactive) in the assay with MOLT-4. In addition, the GI50 with UACC-62 was 8.34 µM (inactive).
Regarding `C=CCNC(=S)N/C=C(\C#N)C(N)=O`, the GI50 in the assay on MDA-MB-231, in the assay with A498, in the assay on NCI/ADR-RES, with OVCAR-3, with SK-MEL-28 and in the assay on SR was > 100 µM (inactive) in each case. Further, the GI50 in the assay with CCRF-CEM, in the assay on MDA-N, in the assay on SF-268, with M14, in the assay on RXF 393 and with LOX IMVI was > 100 µM (inactive) in each case. Also, the GI50 in the assay on RPMI-8226, in the assay on OVCAR-8, with CAKI-1, in the assay with 786-0, with Hs-578T and in the assay with MOLT-4 was > 100 µM (inactive) in each case. The GI50 in the assay with UACC-62 is > 100 µM (inactive).
Turning to `Cc1ccc(/N=N\c2c(O)c(S(=O)(=O)O)cc3cc(S(=O)(=O)O)ccc23)c(C)c1`, the GI50 in the assay with MDA-MB-231, in the assay with A498, in the assay with NCI/ADR-RES, in the assay with OVCAR-3, in the assay on SK-MEL-28 and with SR was > 100 µM (inactive) throughout. Besides, the GI50 in the assay with CCRF-CEM, with MDA-N, in the assay on SF-268, in the assay on M14, in the assay with RXF 393 and with LOX IMVI was > 100 µM (inactive) throughout. In addition, the GI50 in the assay with RPMI-8226, in the assay with OVCAR-8, in the assay on CAKI-1, in the assay on 786-0, in the assay with Hs-578T and with MOLT-4 was > 100 µM (inactive) throughout. For the same compound, the GI50 with UACC-62 is > 100 µM (inactive).
With `O=C1OC(C2OC(=O)c3cc(O)c(O)c(O)c3-c3c(O)c(O)c4oc(=O)c5c(c(O)c(O)c6oc(=O)c3c4c65)-c3c(cc(O)c(O)c3O)C(=O)OCC2O)C2OC(=O)c3c(c(O)c(O)c(O)c3[C@H]2O)-c2c1cc(O)c(O)c2O` (stereo not given in full), the GI50 was 13.5 µM (inactive) in the assay on MDA-MB-231; > 100 µM (inactive) in the assay on A498; 21.8 µM (inactive) in the assay on NCI/ADR-RES; 24.4 µM (inactive) in the assay on OVCAR-3; 98.2 µM (inactive) in the assay on SK-MEL-28; 15 µM (inactive) in the assay with SR. In addition, the GI50 in the assay on CCRF-CEM was 10.9 µM (inactive); with MDA-N, 21.2 µM (inactive); in the assay with SF-268, 24.7 µM (inactive); with M14, 16.4 µM (inactive); in the assay with RXF 393, 26.5 µM (inactive); in the assay with LOX IMVI, 11.5 µM (inactive). Besides, the GI50 is 28.5 µM (inactive) in the assay on RPMI-8226; 20.2 µM (inactive) in the assay on OVCAR-8; 10.3 µM (inactive) with CAKI-1; 18.2 µM (inactive) in the assay on 786-0; 38.6 µM (inactive) in the assay with Hs-578T; 22.6 µM (inactive) in the assay with MOLT-4. Moreover, the GI50 in the assay on UACC-62 was 22.9 µM (inactive).
